Experimental findings from patent publication US8030354B2, “Substituted biphenyl GPR40 modulators” (Amgen Inc., priority 2007, dated 2011) are described below.

The structures appear in SMILES notation.

GPR40, sequence (O14842 whole entry): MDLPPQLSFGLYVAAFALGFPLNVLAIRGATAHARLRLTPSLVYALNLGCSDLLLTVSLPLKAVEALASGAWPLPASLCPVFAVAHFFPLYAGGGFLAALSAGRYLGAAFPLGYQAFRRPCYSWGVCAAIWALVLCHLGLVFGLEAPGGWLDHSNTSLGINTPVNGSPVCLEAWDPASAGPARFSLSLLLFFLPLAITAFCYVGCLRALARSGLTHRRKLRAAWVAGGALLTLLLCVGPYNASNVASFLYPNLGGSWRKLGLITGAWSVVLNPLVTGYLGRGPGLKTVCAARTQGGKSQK

The assay addresses GPR40 (Homo sapiens, UniProt O14842). The experiment in a line: Cell-based aequorin assay (CHO cells stably expressing GPR40 and aequorin). Also on record: expressed in transfected cells; host or cells: CHO cells stably transfected with GPR40 and aequorin. Conditions: activation of human GPR40, CHO cells, 0.01% HSA. Here is the method: Briefly, the Aequorin assays were performed on doubly stable CHO cells expressing GPR40 and Aequorin DNA. […] The luminescence was recorded over a period of 20 seconds with a Microlumat luminometer (Berthold). […] The inositol phosphate assay was performed on an A9 cell line stably transfected with GPR40 (A9_GPR40). The cells were incubated with different concentrations of compounds and [^3H] inositol accumulation was measured after 1 hour.
Cell-based aequorin assays were employed to characterize the modulatory activity of compounds on the GPR40 signaling pathway. In an exemplary assay, CHO cells were stably transfected with both GPR40 and Aequorin (Euroscreen). Cells were detached from the tissue culture dish with 2 mL of trypsin (0.25%(w/v)). Trypsinization was halted with 28 mL of Hanks Buffered Salt Solution containing 20 mM Hepes (H/HBSS) and 0.01% fatty acid-free human serum albumin (HSA). Coelantrazine is added to 1 ug/mL, and the cells were incubated for 2 hours at room temperature. Compounds were dissolved in DMSO for preparation of 10 mM stock solutions. Compounds were diluted in H/HBSS containing 0.01% HSA. Serial dilutions of the test compounds were prepared to determine dose response.
Aequorin luminescence measurements were made using an EG&G Berthold 96-well luminometer, and the response was measured over a 20 second interval after cells and compounds were mixed. The maximum relative light units was plotted to determine dose response. The EC50 (effective concentration to reach 50% maximal response) was determined from the dose response plot.
Take `COc1ccc(F)c(-c2ccc(COc3cccc([C@H](C)CC(=O)O)c3)cc2OCC(C)C)c1` (single isomer, unassigned) [Example 29, (3R)-3-(3-(((2′-Fluoro-5′-(methyloxy)-2-((2-methylpropyl)oxy)-1,1′-biphenyl-4-yl)methyl)oxy)phenyl)butanoic acid or (3S)-3-(3-(((2′-fluoro-5′-(methyloxy)-2-((2-methylpropyl)oxy)-1,1′-biphenyl-4-yl)methyl)oxy)phenyl)butanoic acid]: the concentration for a half-maximal effect (EC50) was 100 to 1000 nM.
The value for `COc1ccc(F)c(-c2ccc(COc3cccc(CCC(=O)O)c3)cc2C)c1` [Example 2, 3-(3-(((2′-Fluoro-2-methyl-5′-(methyloxy)-1,1′-biphenyl-4-yl)methyl)oxy)phenyl)propanoic acid] was 100 to 1000 nM; that for `CCCC(CC(=O)O)c1cccc(OCc2ccc(-c3cccc(OC)c3)c(C3CCCCCC3)c2)c1` (single isomer, unassigned) [Example 80.1, (3R)-3-(3-(((2-Cycloheptyl-3′-(methyloxy)-1,1′-biphenyl-4-yl)methyl)oxy)phenyl)hexanoic acid or (3S)-3-(3-(((2-cycloheptyl-3′-(methyloxy)-1,1′-biphenyl-4-yl)methyl)oxy)phenyl)hexanoic acid] was 100 to 1000 nM.
The value for `CCC(CC(=O)O)c1ccc(F)c(OCc2ccc(-c3cc(OC)ccc3F)c(C(C)(C)C)c2)c1` (single isomer, unassigned) [Example 86.2, (3R)-3-(3-(((2-(1,1-Dimethylethyl)-2′-fluoro-5′-(methyloxy)-1,1′-biphenyl-4-yl)methyl)oxy)-4-fluorophenyl)pentanoic acid or (3S)-3-(3-(((2-(1,1-dimethylethyl)-2′-fluoro-5′-(methyloxy)-1,1′-biphenyl-4-yl)methyl)oxy)-4-fluorophenyl)pentanoic acid] was 1000 to 10000 nM; that for `COc1ccc(F)c(-c2ccc(COc3cccc([C@H](CC(=O)O)C4CC4)c3F)cc2[C@H]2CCCC2(C)C)c1` (single isomer, unassigned) [Example 99.3] was 1000 to 10000 nM.
To `COc1ccc(F)c(-c2ccc(COc3cccc(C(CC(=O)O)C4CC4)c3)cc2CN2CCCC[C@@H]2C)c1` (single isomer, unassigned) [Example 66.75, (3S)-3-Cyclopropyl-3-(3-(((2′-fluoro-5′-(methyloxy)-2-(((2S)-2-methyl-1-piperidinyl)methyl)-1,1′-biphenyl-4-yl)methyl)oxy)phenyl)propanoic acid or (3R)-3-cyclopropyl-3-(3-(((2′-fluoro-5′-(methyloxy)-2-(((2S)-2-methyl-1-piperidinyl)methyl)-1,1′-biphenyl-4-yl)methyl)oxy)phenyl)propanoic acid] belongs 1000 to 10000 nM; to `CC1(C)CCC[C@H]1c1cc(COc2cccc([C@@H](CC(=O)O)C3CC3)c2)ccc1-c1cccc(OC(F)F)c1` (single isomer, unassigned) [Example 66.47], 100 to 1000 nM.
Compound `CCOCc1cc(COc2cccc(C(CC)CC(=O)O)c2)ccc1-c1cc(OC)ccc1F` (single isomer, unassigned) [Example 78.12, (3R)-3-(3-(((2-((Ethyloxy)methyl)-2′-fluoro-5′-(methyloxy)-1,1′-biphenyl-4-yl)methyl)oxy)phenyl)pentanoic acid or (3S)-3-(3-(((2-((ethyloxy)methyl)-2′-fluoro-5′-(methyloxy)-1,1′-biphenyl-4-yl)methyl)oxy)phenyl)pentanoic acid] had an EC50 of 1000 to 10000 nM.
The value for `C=C[C@H](CC(=O)O)c1cccc(OCc2ccc(-c3cc(OC)ccc3F)c(C(C)(C)C)c2)c1` (single isomer, unassigned) [Example 15, (3S)-3-(3-(((2-(1,1-Dimethylethyl)-2′-fluoro-5′-(methyloxy)-1,1′-biphenyl-4-yl)methyl)oxy)phenyl)-4-pentenoic acid or (3R)-3-(3-(((2-(1,1-dimethylethyl)-2′-fluoro-5′-(methyloxy)-1,1′-biphenyl-4-yl)methyl)oxy)phenyl)-4-pentenoic acid] was 1000 to 10000 nM; that for `CCCCOc1cc(COc2cccc([C@@H](CC(=O)O)C(C)C)c2)ccc1-c1cc(OC)ccc1F` (single isomer, unassigned) [Example 53] was 1000 to 10000 nM.
Consider `COc1ccc(F)c(-c2ccc(COc3cccc(C(CCC(F)(F)F)CC(=O)O)c3)cc2C(C)(C)C)c1` (single isomer, unassigned) [Example 68.1, (3R)-3-(3-(((2-(1,1-Dimethylethyl)-2′-fluoro-5′-(methyloxy)-1,1′-biphenyl-4-yl)methyl)oxy)phenyl)-6,6,6-trifluorohexanoic acid or (3S)-3-(3-(((2-(1,1-dimethylethyl)-2′-fluoro-5′-(methyloxy)-1,1′-biphenyl-4-yl)methyl)oxy)phenyl)-6,6,6-trifluorohexanoic acid], for which the EC50 was in the range of 100 to 1000 nM.
To `C=C(C)[C@@H](CC(=O)O)c1cccc(OCc2ccc(-c3cc(OC)ccc3F)c(C(C)(C)C)c2)c1` (single isomer, unassigned) [Example 48, (3R)-3-(3-(((2-(1,1-Dimethylethyl)-2′-fluoro-5′-(methyloxy)-1,1′-biphenyl-4-yl)methyl)oxy)phenyl)-4-methyl-4-pentenoic acid or (3S)-3-(3-(((2-(1,1-dimethylethyl)-2′-fluoro-5′-(methyloxy)-1,1′-biphenyl-4-yl)methyl)oxy)phenyl)-4-methyl-4-pentenoic acid] belongs 1000 to 10000 nM.
`COc1ccc(F)c(-c2ccc(COc3cccc(C(CC(=O)O)C4CC4)c3)cc2C2CCCC2(C)C)c1` (single isomer, unassigned) [Example 97.2] returned an EC50 of 1000 to 10000 nM.
The value for `C=CC(C)(C)[C@H](O)c1cc(COc2cccc([C@H](CCC)CC(=O)O)c2)ccc1-c1cc(OC)ccc1F` (single isomer, unassigned) [Example 67.25, (3R)-3-(3-(((2′-Fluoro-2-((1S)-1-hydroxy-2,2-dimethyl-3-butenyl)-5′-(methyloxy)-1,1′-biphenyl-4-yl)methyl)oxy)phenyl)hexanoic acid or (3R)-3-(3-(((2′-fluoro-2-((1R)-1-hydroxy-2,2-dimethyl-3-butenyl)-5′-(methyloxy)-1,1′-biphenyl-4-yl)methyl)oxy)phenyl)hexanoic acid] was 1000 to 10000 nM; that for `COc1ccc(F)c(-c2ccc(COc3cccc([C@@H](CC(=O)O)C4CC4)c3)cc2C2CCCCCCC2)c1` (single isomer, unassigned) [Example 66.16, (3S)-3-(3-(((2-Cyclooctyl-2′-fluoro-5′-(methyloxy)-1,1′-biphenyl-4-yl)methyl)oxy)phenyl)-3-cyclopropylpropanoic acid or (3R)-3-(3-(((2-cyclooctyl-2′-fluoro-5′-(methyloxy)-1,1′-biphenyl-4-yl)methyl)oxy)phenyl)-3-cyclopropylpropanoic acid] was 100 to 1000 nM.
To `COc1ccc(F)c(-c2ccc(COc3cccc(CC(C)C(=O)O)c3)cc2C2CCCC2(C)C)c1` (single isomer, unassigned) [Example 62.2, (2R)-3-(3-(((2-(2,2-Dimethylcyclopentyl)-2′-fluoro-5′-(methyloxy)-1,1′-biphenyl-4-yl)methyl)oxy)phenyl)-2-methylpropanoic acid or (2S)-3-(3-(((2-(2,2-dimethylcyclopentyl)-2′-fluoro-5′-(methyloxy)-1,1′-biphenyl-4-yl)methyl)oxy)phenyl)-2-methylpropanoic acid] belongs 100 to 1000 nM; to `CCCCOc1cc(COc2cccc(C(C)CC(=O)O)c2)ccc1-c1cccc(F)c1` (single isomer, unassigned) [Example 64.26, (3R)-3-(3-(((2-(butyloxy)-3′-fluoro-1,1′-biphenyl-4-yl)methyl)oxy)phenyl)butanoic acid or (3S)-3-(3-(((2-(butyloxy)-3′-fluoro-1,1′-biphenyl-4-yl)methyl)oxy)phenyl)butanoic acid], 1000 to 10000 nM; to `CCC/C=C/c1cc(COc2cccc(C(C)CC(=O)O)c2)ccc1-c1cc(OC)ccc1F` (single isomer, unassigned) [Example 64.8, (3R)-3-(3-(((2′-Fluoro-5′-(methyloxy)-2-((1E)-1-pentenyl)-1,1′-biphenyl-4-yl)methyl)oxy)phenyl)butanoic acid or (3S)-3-(3-(((2′-fluoro-5′-(methyloxy)-2-((1E)-1-pentenyl)-1,1′-biphenyl-4-yl)methyl)oxy)phenyl)butanoic acid], 100 to 1000 nM.
`CCCC(CC(=O)O)c1cccc(OCc2ccc(-c3cc(OC)ccc3F)c(/C=C/C3CC3)c2)c1` (single isomer, unassigned) [Example 67.9, (3R)-3-(3-(((2-((E)-2-Cyclopropylethenyl)-2′-fluoro-5′-(methyloxy)-1,1′-biphenyl-4-yl)methyl)oxy)phenyl)hexanoic acid or (3S)-3-(3-(((2-((E)-2-cyclopropylethenyl)-2′-fluoro-5′-(methyloxy)-1,1′-biphenyl-4-yl)methyl)oxy)phenyl)hexanoic acid] registered an EC50 of 1000 to 10000 nM.
